Assay results reported in the supplement of paper PMC10307832.

Legend:
Experiment in all cases: relative viability (nuclei count vs DMSO), 5 days (fraction); higher = more cells survive
Carfilzomib + OSI-027 = compound: CC(C)C[C@H](NC(=O)[C@H](CCc1ccccc1)NC(=O)CN1CCOCC1)C(=O)N[C@@H](Cc1ccccc1)C(=O)N[C@@H](CC(C)C)C(=O)[C@@]1(C)CO1 [Carfilzomib] + COc1cccc2cc(-c3nc([C@H]4CC[C@H](C(=O)O)CC4)n4ncnc(N)c34)[nH]c12 [OSI-027] (partner 0.5 µM)
In short: (§1)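 Lung cancer cell lines were seeded in 1536-well plates and dosed by pin tool the next day, with either a single drug or a fixed anchor-drug dose combined with five library-drug doses (not always all listed) spaced in √10 steps. Five days later, one step fixed the cells and stained their nuclei (final 0.05% Triton X-100, 1% formaldehyde, 1 ug/ml Hoechst), and nuclei were counted on 4× images. Relative viability is the nuclei count in treated wells divided by the count in vehicle wells, and each value is the median of duplicate plates.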

Carfilzomib + Tozasertib = compound: CC(C)C[C@H](NC(=O)[C@H](CCc1ccccc1)NC(=O)CN1CCOCC1)C(=O)N[C@@H](Cc1ccccc1)C(=O)N[C@@H](CC(C)C)C(=O)[C@@]1(C)CO1 [Carfilzomib] + Cc1cc(Nc2cc(N3CCN(C)CC3)nc(Sc3ccc(NC(=O)C4CC4)cc3)n2)n[nH]1 [Tozasertib] (partner 0.1 µM)
In short: as §1

Carfilzomib + Decitabine = compound: CC(C)C[C@H](NC(=O)[C@H](CCc1ccccc1)NC(=O)CN1CCOCC1)C(=O)N[C@@H](Cc1ccccc1)C(=O)N[C@@H](CC(C)C)C(=O)[C@@]1(C)CO1 [Carfilzomib] + Nc1ncn([C@H]2C[C@H](O)[C@@H](CO)O2)c(=O)n1 [Decitabine] (partner 2 µM)
In short: as §1

Crizotinib + Linsitinib = compound: C[C@@H](Oc1cc(-c2cnn(C3CCNCC3)c2)cnc1N)c1c(Cl)ccc(F)c1Cl [Crizotinib] + C[C@]1(O)C[C@@H](c2nc(-c3ccc4ccc(-c5ccccc5)nc4c3)c3c(N)nccn32)C1 [Linsitinib] (partner 1 µM)
In short: as §1

Cell Line	relative viability (Carfilzomib + OSI-027; first compound 0.001 µM)	relative viability (Carfilzomib + OSI-027; first compound 0.003162 µM)	relative viability (Carfilzomib + OSI-027; first compound 0.01 µM)	relative viability (Carfilzomib + OSI-027; first compound 0.03162 µM)	relative viability (Carfilzomib + OSI-027; first compound 0.1 µM)	relative viability (Carfilzomib + Tozasertib; first compound 0.001 µM)	relative viability (Carfilzomib + Tozasertib; first compound 0.003162 µM)	relative viability (Carfilzomib + Tozasertib; first compound 0.01 µM)	relative viability (Carfilzomib + Tozasertib; first compound 0.03162 µM)	relative viability (Carfilzomib + Tozasertib; first compound 0.1 µM)	relative viability (Carfilzomib + Decitabine; first compound 0.001 µM)	relative viability (Carfilzomib + Decitabine; first compound 0.003162 µM)	relative viability (Carfilzomib + Decitabine; first compound 0.01 µM)	relative viability (Carfilzomib + Decitabine; first compound 0.03162 µM)	relative viability (Carfilzomib + Decitabine; first compound 0.1 µM)	relative viability (Crizotinib + Linsitinib; first compound 0.01 µM)	relative viability (Crizotinib + Linsitinib; first compound 0.1 µM)	relative viability (Crizotinib + Linsitinib; first compound 0.3162 µM)	relative viability (Crizotinib + Linsitinib; first compound 1 µM)	relative viability (Crizotinib + Linsitinib; first compound 0.03162 µM)
201T	0.749	0.795	0.884	0.437	0.31	0.957	1	1.04	0.993	0.754	0.818	0.901	0.798	0.873	0.795	1.02	1.04	1.03	1.12	
A549											0.167	0.292	0.109	0.254	0.0302	0.527	0.52		0.707	0.568
A-427	0.47	0.542	0.395	0.145	0.132	0.207	0.236	0.198	0.099	0.103	0.587	0.565	0.591	0.527	0.178	1.1	1.16		1.1	1.12
ABC-1	0.431	0.289	0.276	0.158	0.171	0.196	0.193	0.196	0.212	0.211	1.24	1.34	0.539	0.274	0.285	0.95	1.12	1.09		0.843
BEN	0.312	0.313	0.3	0.294	0.263	0.554	0.547	0.591	0.553	0.421	0.603	0.861	0.643	0.577	0.26	0.843	0.818	1.04	0.916	0.844
CAL-12T	0.667	0.708	0.85	0.131	0.131	0.313	0.393	0.333	0.251	0.125						0.753	0.708	0.748		0.904
COR-L23	0.455	0.908	0.762	0.144	0.0646	0.216	0.319	0.216	0.0505	0.0802	0.383	0.443	0.386	0.0979	0.0901		0.844	0.802	0.925	0.876
COR-L 105	0.805	0.82	0.699	0.271	0.191	0.328	0.311	0.411	0.263	0.225	0.621	0.752	0.751	0.466	0.34	1.14	0.929	0.956	0.972	1
Calu-6																0.939	0.861	0.938	0.955	1.05
ChaGo-K-1	0.414	0.576	0.659	0.554	0.176	0.207	0.236	0.224	0.225	0.157	0.476	0.55	0.494	0.322	0.174					
EBC-1																	0.889	0.159	0.167	0.886
EKVX	0.689	0.754	0.834	0.601	0.315	0.346	0.432	0.435	0.34	0.281	0.371	0.36	0.335		0.128	1	1.02	1	0.975	0.998
EMC-BAC-2	0.378	0.448	0.409	0.242	0.197	0.284	0.298	0.305	0.212	0.194	1	1.02	0.954	0.911	0.296	0.758	0.809	0.798	0.81	0.834
EPLC-272H	0.284	0.291	0.248	0.119	0.0723	0.282	0.25	0.317	0.105	0.0498	0.353	0.391	0.379	0.174	0.0719	1.18	1.17	1.14	1.27	1.11
H3255	0.581	0.536	0.65	0.584	0.237	0.697	0.604	0.686	0.737	0.392	0.645	0.704	0.684		0.185	0.806	0.974	0.841	0.962	0.924
HARA	0.537	0.564	0.675	0.0444	0.0712	0.11	0.106	0.117	0.0557	0.0586	0.669	0.747	0.704	0.192	0.119	0.919	0.778	0.976	0.873	0.978
HCC-15	0.706	0.801	0.763	0.279	0.0802	0.385	0.393	0.385	0.356	0.0753	0.606	0.725	0.637	0.424	0.127	0.819	0.864	0.886	0.946	0.934
HCC-44	0.48	0.564	0.574	0.338	0.217	0.826	1.05	1.22	0.303	0.157	0.939	0.893	0.917	0.973	0.639	0.646	0.595	0.704	0.719	0.721
HCC-78	0.332	0.318	0.387	0.359	0.227	0.356	0.61	0.401	0.358	0.287	0.622	0.766	0.672	0.554	0.302	0.489	0.459	0.433	0.372	0.529
HCC-366	0.914	1.02	1.12	0.839	0.035	0.0847	0.132	0.185	0.106	0.0351	0.32	0.412	0.352	0.447	0.086	0.64	0.649		0.608	0.679

Cell Line	relative viability (Carfilzomib + OSI-027; first compound 0.001 µM)	relative viability (Carfilzomib + OSI-027; first compound 0.003162 µM)	relative viability (Carfilzomib + OSI-027; first compound 0.01 µM)	relative viability (Carfilzomib + OSI-027; first compound 0.03162 µM)	relative viability (Carfilzomib + OSI-027; first compound 0.1 µM)	relative viability (Carfilzomib + Tozasertib; first compound 0.001 µM)	relative viability (Carfilzomib + Tozasertib; first compound 0.003162 µM)	relative viability (Carfilzomib + Tozasertib; first compound 0.01 µM)	relative viability (Carfilzomib + Tozasertib; first compound 0.03162 µM)	relative viability (Carfilzomib + Tozasertib; first compound 0.1 µM)	relative viability (Carfilzomib + Decitabine; first compound 0.001 µM)	relative viability (Carfilzomib + Decitabine; first compound 0.003162 µM)	relative viability (Carfilzomib + Decitabine; first compound 0.01 µM)	relative viability (Carfilzomib + Decitabine; first compound 0.03162 µM)	relative viability (Carfilzomib + Decitabine; first compound 0.1 µM)	relative viability (Crizotinib + Linsitinib; first compound 0.01 µM)	relative viability (Crizotinib + Linsitinib; first compound 0.1 µM)	relative viability (Crizotinib + Linsitinib; first compound 0.3162 µM)	relative viability (Crizotinib + Linsitinib; first compound 1 µM)	relative viability (Crizotinib + Linsitinib; first compound 0.03162 µM)
HCC-827	0.796	0.829	0.872	0.746	0.511	0.366	0.397	0.47	0.411	0.265	0.287	0.371	0.31	0.269	0.133	0.927		0.946	0.958	0.931
HOP-62	0.892	0.899	0.575	0.317	0.083	0.37	0.405	0.385	0.19	0.0741	0.25	0.207	0.249	0.182	0.0817	0.81	1.1	0.956	0.816	0.946
IA-LM																0.611	0.649	0.507	0.609	0.748
LC-2-ad	0.83	1.02	0.901	0.633	0.207	0.466	0.453	0.498	0.279	0.24	0.878	0.811	0.75	0.861	0.557	0.872	0.762		0.852	0.879
LCLC-97TM1	0.459	0.512	0.533	0.298	0.246	0.25	0.263	0.215	0.205	0.107	0.234	0.283	0.226	0.115	0.0656	0.17	0.177	0.19	0.168	0.195
LCLC-103H	0.462	0.463	0.541	0.483	0.277	0.467	0.511	0.408	0.518	0.169	0.722	0.732	0.793	0.728	0.387	0.985	1	1.15	1.3	1.07
LK-2	0.223	0.201	0.166	0.18	0.181	0.181	0.172	0.159	0.179	0.196	0.276	0.369	0.193	0.119	0.108	0.431	0.541	0.458	0.709	0.523
NCI-H522	0.585	0.731	0.634	0.461	0.456	0.491	0.6	0.653	0.349	0.346	0.582	0.631	0.615	0.584	0.353					
NCI-H1299																0.988	1.02	0.99	0.984	0.992
NCI-H1563	0.775	0.71	0.797	0.705	0.586											1.18	1.22	1.3	1.27	1.12
NCI-H1623	0.449	0.462	0.46	0.374	0.312	0.404	0.443	0.515	0.434	0.294										
NCI-H1648		0.272	0.256	0.255	0.298		0.556	0.495	0.37	0.248	0.447	0.495	0.474	0.404	0.255					
NCI-H1650	0.656	0.496	0.162	0.142	0.198	0.42	0.392	0.255	0.139	0.204	0.42	0.522	0.359	0.148	0.177					
NCI-H1703																0.773	0.727	0.777	0.654	0.852
NCI-H1792	0.727	0.794	0.684	0.633	0.519							0.592	0.619	0.542	0.207	0.519	0.586	0.473	0.559	0.558
NCI-H2170	0.643	0.696	0.792	0.72	0.271	0.751	0.73	0.749	0.659	0.173	0.451	0.474	0.448	0.477	0.22					
NCI-H2228	0.506	0.736	0.397	0.0668	0.0974	0.3	0.27	0.289	0.096	0.103						0.629	0.718	0.371	0.328	0.733
NCI-H2342	0.663	0.621	0.723	0.632	0.495	0.495	0.473	0.579	0.543	0.385	0.711	0.78	0.782	0.887	0.585					
SW 900	0.451	0.362	0.114	0.0786	0.135	0.508	0.682	0.142	0.149	0.164		0.5	0.344	0.197	0.22					
